Results taken from patent publication US20240239785A1, “SUBSTITUTED 2-(2,6-DIOXOPIPERIDIN-3-YL)-5-(1-PIPERIDIN-4-YL)ISOINDOLINE-1,3-DIONE DERIVATIVES AND USES THEREOF” (Neomorph, Inc., priority 2021, published 2024).
Structures can show the parent of a compound that is named as a salt.

Molecular target: T1, IKZF2 (Homo sapiens, UniProt Q96SW2+Q9UKS7)
T1 construct: endogenous in cells; host or cells: MOLT4 (CRISPR/Cas9 HiBit knock-in at the IKZF2 locus)
Assay: MOLT4 IKZF2 HiBit assay
Assay type: cell-based
Conditions: MOLT4 IKZF2 HiBit cells; for DC50: 6 hours incubation, 10-point dose response from 30 μM; for Dmax at 30 µM: MOLT-4, 6 hr (Dmax), read-out: % reduction of IKZF2 @ 30 μM (6 hr)
Method: MOLT4 IKZF2 HiBit Assay Protocol:
This protocol used MOLT4 cells that were engineered using CRISPR/Cas9-mediated genomic insertion of HiBit, tagged to the N terminus of the IKZF2 coding sequence. Day 1. A 10-point dose response was created starting from 30 μM down to InM using a Tecan D300e. Next was added 8,000 cells/well of the MOLT4 IKZF2 HiBit cells to the compound plate. The compounds plate was incubated for 6 hours. Day 2. Nano-Glo HiBit Lytic Buffer/Nano-Glo HiBit Lytic substrate/LgBit Protein mix was added to each well and the compound plate was incubated for 15 minutes. Finally, luminescence signal was read using a BMG Labtech PHERAstar FSX. Data was normalized to DMSO and graphed using GraphPad Prism to determine the concentration points at which 50% of HiBiT-Helios degradation was achieved by each compound. The extent of degradation (range of luminescence) from the highest to lowest concentration points was calculated to determine Dmax.

T1 sequence (Q9UKS7 whole entry): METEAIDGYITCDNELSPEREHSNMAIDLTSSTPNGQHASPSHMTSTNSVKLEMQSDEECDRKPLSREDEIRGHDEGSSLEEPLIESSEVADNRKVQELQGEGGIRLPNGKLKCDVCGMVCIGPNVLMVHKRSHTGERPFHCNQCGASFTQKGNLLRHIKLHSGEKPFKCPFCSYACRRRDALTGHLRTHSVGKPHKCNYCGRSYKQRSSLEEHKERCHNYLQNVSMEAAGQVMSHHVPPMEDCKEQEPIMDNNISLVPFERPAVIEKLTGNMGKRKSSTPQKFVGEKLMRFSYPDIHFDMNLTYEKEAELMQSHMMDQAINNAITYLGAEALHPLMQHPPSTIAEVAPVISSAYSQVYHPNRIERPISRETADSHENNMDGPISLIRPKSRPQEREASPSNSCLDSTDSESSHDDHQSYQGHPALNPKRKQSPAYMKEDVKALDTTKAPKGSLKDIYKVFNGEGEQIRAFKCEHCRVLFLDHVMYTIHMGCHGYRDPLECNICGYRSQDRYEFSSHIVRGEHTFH
T1 sequence (Q96SW2 whole entry): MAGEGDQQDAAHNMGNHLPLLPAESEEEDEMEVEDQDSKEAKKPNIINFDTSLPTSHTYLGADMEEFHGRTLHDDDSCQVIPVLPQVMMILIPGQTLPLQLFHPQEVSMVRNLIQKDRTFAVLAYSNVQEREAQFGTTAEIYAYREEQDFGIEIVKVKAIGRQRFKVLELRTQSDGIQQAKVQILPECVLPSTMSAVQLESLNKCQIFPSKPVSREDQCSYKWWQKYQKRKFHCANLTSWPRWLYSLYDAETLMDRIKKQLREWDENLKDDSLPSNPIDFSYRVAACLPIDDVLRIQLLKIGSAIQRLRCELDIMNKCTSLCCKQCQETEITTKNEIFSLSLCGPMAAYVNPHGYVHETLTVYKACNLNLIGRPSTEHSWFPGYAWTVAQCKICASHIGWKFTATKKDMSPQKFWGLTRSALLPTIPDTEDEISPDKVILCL
T1 sequence (Q16531 whole entry partner): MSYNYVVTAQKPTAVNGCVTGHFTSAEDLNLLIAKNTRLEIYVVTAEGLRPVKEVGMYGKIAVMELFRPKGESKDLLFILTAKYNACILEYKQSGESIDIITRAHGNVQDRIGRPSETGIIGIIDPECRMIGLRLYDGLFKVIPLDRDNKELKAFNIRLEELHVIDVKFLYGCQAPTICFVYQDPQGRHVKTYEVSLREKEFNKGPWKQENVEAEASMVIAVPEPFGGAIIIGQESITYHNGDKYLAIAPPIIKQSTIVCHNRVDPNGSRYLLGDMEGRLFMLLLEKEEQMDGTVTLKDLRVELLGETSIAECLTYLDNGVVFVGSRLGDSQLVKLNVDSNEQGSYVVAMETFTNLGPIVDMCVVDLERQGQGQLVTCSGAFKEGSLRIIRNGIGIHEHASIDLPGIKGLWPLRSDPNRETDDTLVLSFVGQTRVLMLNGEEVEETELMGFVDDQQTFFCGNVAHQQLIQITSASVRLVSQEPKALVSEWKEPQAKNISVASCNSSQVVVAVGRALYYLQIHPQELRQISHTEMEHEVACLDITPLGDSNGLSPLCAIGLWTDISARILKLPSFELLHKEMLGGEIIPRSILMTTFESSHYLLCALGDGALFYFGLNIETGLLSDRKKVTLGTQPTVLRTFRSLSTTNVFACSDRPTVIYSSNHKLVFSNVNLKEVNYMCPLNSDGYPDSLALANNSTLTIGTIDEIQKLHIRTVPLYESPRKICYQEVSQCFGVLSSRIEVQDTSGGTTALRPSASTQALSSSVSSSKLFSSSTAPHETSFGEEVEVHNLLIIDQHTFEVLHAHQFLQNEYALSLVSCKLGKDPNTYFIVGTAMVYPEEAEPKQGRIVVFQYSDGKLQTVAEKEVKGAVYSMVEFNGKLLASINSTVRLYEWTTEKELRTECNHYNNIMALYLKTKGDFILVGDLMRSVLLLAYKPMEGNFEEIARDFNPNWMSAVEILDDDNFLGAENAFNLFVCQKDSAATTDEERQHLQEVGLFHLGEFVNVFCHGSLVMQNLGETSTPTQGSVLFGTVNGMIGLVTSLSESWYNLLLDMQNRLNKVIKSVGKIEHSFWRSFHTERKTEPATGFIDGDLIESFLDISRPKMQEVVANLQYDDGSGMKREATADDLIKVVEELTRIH

Structure (SMILES) | DC50 [nM] | Dmax at 30 µM [%]
O=C1CCC(N2C(=O)c3ccc(C4(O)CCN(C(CF)c5ccccc5)CC4)cc3C2=O)C(=O)N1 (stereo not drawn) [Compound 34, 2-(2,6-dioxopiperidin-3-yl)-5-[1-(2-fluoro-1-phenylethyl)-4-hydroxypiperidin-4-yl]-2,3-dihydro-1H-isoindole-1,3-dione, formic acid salt] | 31 | 76
CC(c1ccccc1)N1CCC(O)(c2ccc3c(c2)C(=O)N(C2CCC(=O)NC2=O)C3=O)CC1 (stereo not drawn) [Compound 35, 2-(2,6-dioxopiperidin-3-yl)-5-[4-hydroxy-1-(1-phenylethyl)piperidin-4-yl]-2,3-dihydro-1H-isoindole-1,3-dione, HCl salt] | 4 | 84
N#Cc1cccc(CN2CCC(O)(c3ccc4c(c3)C(=O)N(C3CCC(=O)NC3=O)C4=O)CC2)c1 (stereo not drawn) [Compound 42, 3-({4-[2-(2,6-dioxopiperidin-3-yl)-1,3-dioxo-2,3-dihydro-1H-isoindol-5-yl]-4-hydroxypiperidin-1-yl}methyl)benzonitrile] | 9 | 80
N#Cc1ccc(CN2CCC(O)(c3ccc4c(c3)C(=O)N(C3CCC(=O)NC3=O)C4=O)CC2)cc1 (stereo not drawn) [Compound 57, 4-({4-[2-(2,6-dioxopiperidin-3-yl)-1,3-dioxo-2,3-dihydro-1H-isoindol-5-yl]-4-hydroxypiperidin-1-yl}methyl)benzonitrile] | 6 | 81
COCc1ccc(CN2CCC(O)(c3ccc4c(c3)C(=O)N(C3CCC(=O)NC3=O)C4=O)CC2)cc1 (stereo not drawn) [Compound 61, 2-(2,6-dioxopiperidin-3-yl)-5-(4-hydroxy-1-{[4-(methoxymethyl)phenyl]methyl}piperidin-4-yl)-2,3-dihydro-1H-isoindole-1,3-dione, HCl salt] | 5 | 83
O=C1CCC(N2C(=O)c3ccc(C4(O)CCN(Cc5ccccn5)CC4)cc3C2=O)C(=O)N1 (stereo not drawn) [Compound 68, 2-(2,6-dioxopiperidin-3-yl)-5-{4-hydroxy-1-[(pyridin-2-yl)methyl]piperidin-4-yl}-2,3-dihydro-1H-isoindole-1,3-dione, HCl salt] | 21 | 71
O=C1CCC(N2C(=O)c3ccc(C4(O)CCN(Cc5cccnc5)CC4)cc3C2=O)C(=O)N1 (stereo not drawn) [Compound 69, 2-(2,6-dioxopiperidin-3-yl)-5-{4-hydroxy-1-[(pyridin-3-yl)methyl]piperidin-4-yl}-2,3-dihydro-1H-isoindole-1,3-dione, formic acid salt] | 39 | 72
O=C1CCC(N2C(=O)c3ccc(C4(O)CCN(Cc5ccncc5)CC4)cc3C2=O)C(=O)N1 (stereo not drawn) [Compound 70, 2-(2,6-dioxopiperidin-3-yl)-5-{4-hydroxy-1-[(pyridin-4-yl)methyl]piperidin-4-yl}-2,3-dihydro-1H-isoindole-1,3-dione, HCl salt] | 20 | 78
COc1ccc(CN2CCC(O)(c3ccc4c(c3)C(=O)N(C3CCC(=O)NC3=O)C4=O)CC2)cn1 (stereo not drawn) [Compound 72, 2-(2,6-dioxopiperidin-3-yl)-5-{4-hydroxy-1-[(6-methoxypyridin-3-yl)methyl]piperidin-4-yl}-2,3-dihydro-1H-isoindole-1,3-dione, HCl salt] | 1 | 80
COC[C@H]1CC[C@H](CN2CCC(O)(c3ccc4c(c3)C(=O)N(C3CCC(=O)NC3=O)C4=O)CC2)CC1 (stereo partly drawn) [Compound 84, trans-2-(2,6-dioxopiperidin-3-yl)-5-(4-hydroxy-1-((4-(methoxymethyl)cyclohexyl)methyl)piperidin-4-yl)isoindoline-1,3-dione] | 8.3 | 60
COC[C@H]1CC[C@H](CN2CCC(c3ccc4c(c3)C(=O)N(C3CCC(=O)NC3=O)C4=O)CC2)CC1 (stereo partly drawn) [Compound 85, trans-2-(2,6-dioxopiperidin-3-yl)-5-(1-((4-(methoxymethyl)cyclohexyl)methyl)piperidin-4-yl)isoindoline-1,3-dione formic acid] | – | 25
O=C1CCC(N2C(=O)c3ccc(C4(O)CCN(Cc5coc(-c6ccccc6)n5)CC4)cc3C2=O)C(=O)N1 (stereo not drawn) [Compound 91, 2-(2,6-dioxopiperidin-3-yl)-5-{4-hydroxy-1-[(2-phenyl-1,3-oxazol-4-yl)methyl]piperidin-4-yl}-2,3-dihydro-1H-isoindole-1,3-dione, HCl salt] | 21 | 60
O=C1CCC(N2C(=O)c3ccc(C4(O)CCN(Cc5ccn(-c6ccccc6)n5)CC4)cc3C2=O)C(=O)N1 (stereo not drawn) [Compound 94, 2-(2,6-dioxopiperidin-3-yl)-5-{4-hydroxy-1-[(1-phenyl-1H-pyrazol-3-yl)methyl]piperidin-4-yl}-2,3-dihydro-1H-isoindole-1,3-dione, HCl salt] | 8 | 79
O=C1CCC(N2C(=O)c3ccc(C4CCN(Cc5ccc6ncn(-c7ccccn7)c(=O)c6c5)CC4)cc3C2=O)C(=O)N1 (stereo not drawn) [Compound 97, 2-(2,6-dioxopiperidin-3-yl)-5-(1-((4-oxo-3-(pyridin-2-yl)-3,4-dihydroquinazolin-6-yl)methyl)piperidin-4-yl)isoindoline-1,3-dione] | – | 36
O=C1CCC(N2C(=O)c3ccc(C4(O)CCN(Cc5ccc6ncn(-c7ccccn7)c(=O)c6c5)CC4)cc3C2=O)C(=O)N1 (stereo not drawn) [Compound 98, 2-(2,6-dioxopiperidin-3-yl)-5-(4-hydroxy-1-((4-oxo-3-(pyridin-2-yl)-3,4-dihydroquinazolin-6-yl)methyl)piperidin-4-yl)isoindoline-1,3-dione] | 1.5 | 72
O=C1CCC(N2C(=O)c3ccc(C4(O)CCN(Cc5ccc6ncn(-c7cccnc7)c(=O)c6c5)CC4)cc3C2=O)C(=O)N1 (stereo not drawn) [Compound 99, 2-(2,6-dioxopiperidin-3-yl)-5-(4-hydroxy-1-{[4-oxo-3-(pyridin-3-yl)-3,4-dihydroquinazolin-6-yl]methyl}piperidin-4-yl)-2,3-dihydro-1H-isoindole-1,3-dione, formic acid salt] | 1 | 89
O=C1CCC(N2C(=O)c3ccc(C4(O)CCN(Cc5ccccc5)CC4)c(F)c3C2=O)C(=O)N1 (stereo not drawn) [Compound 128, 5-(1-benzyl-4-hydroxypiperidin-4-yl)-2-(2,6-dioxopiperidin-3-yl)-4-fluoro-2,3-dihydro-1H-isoindole-1,3-dione, HCl salt] | 2 | 81
Cn1ncc2ccc(CN3CCC(O)(c4ccc5c(c4)C(=O)N(C4CCC(=O)NC4=O)C5=O)CC3)cc21 (stereo not drawn) [Compound 140, 2-(2,6-dioxopiperidin-3-yl)-5-{4-hydroxy-1-[(1-methyl-1H-indazol-6-yl)methyl]piperidin-4-yl}-2,3-dihydro-1H-isoindole-1,3-dione, formic acid salt] | 3 | 87
Cn1ccc2cc(CN3CCC(O)(c4ccc5c(c4)C(=O)N(C4CCC(=O)NC4=O)C5=O)CC3)ccc21 (stereo not drawn) [Compound 141, 2-(2,6-dioxopiperidin-3-yl)-5-{4-hydroxy-1-[(1-methyl-1H-indol-5-yl)methyl]piperidin-4-yl}-2,3-dihydro-1H-isoindole-1,3-dione, HCl salt] | 11 | 86
Cn1c(CN2CCC(O)(c3ccc4c(c3)C(=O)N(C3CCC(=O)NC3=O)C4=O)CC2)cc2ccccc21 (stereo not drawn) [Compound 142, 2-(2,6-dioxopiperidin-3-yl)-5-{4-hydroxy-1-[(1-methyl-1H-indol-2-yl)methyl]piperidin-4-yl}-2,3-dihydro-1H-isoindole-1,3-dione, formic acid salt] | 13 | 82
CC(c1ccc(C(F)(F)F)cc1)N1CCC(O)(c2ccc3c(c2)C(=O)N(C2CCC(=O)NC2=O)C3=O)CC1 (stereo not drawn) [Compound 143, 2-(2,6-dioxopiperidin-3-yl)-5-(4-hydroxy-1-{1-[4-(trifluoromethyl)phenyl]ethyl}piperidin-4-yl)-2,3-dihydro-1H-isoindole-1,3-dione, HCl salt] | 6 | 84
O=C1CCC(N2C(=O)c3ccc(C4(O)CCN(Cc5ccc6[nH]ccc6c5)CC4)cc3C2=O)C(=O)N1 (stereo not drawn) [Compound 144, 2-(2,6-dioxopiperidin-3-yl)-5-{4-hydroxy-1-[(1H-indol-5-yl)methyl]piperidin-4-yl}-2,3-dihydro-1H-isoindole-1,3-dione, formic acid salt] | 16 | 88
Cn1ncc2cc(CN3CCC(O)(c4ccc5c(c4)C(=O)N(C4CCC(=O)NC4=O)C5=O)CC3)ccc21 (stereo not drawn) [Compound 145, 2-(2,6-dioxopiperidin-3-yl)-5-{4-hydroxy-1-[(1-methyl-1H-indazol-5-yl)methyl]piperidin-4-yl}-2,3-dihydro-1H-isoindole-1,3-dione, formic acid salt] | 4 | 83
CCCN1CCC(O)(c2ccc3c(c2)C(=O)N(C2CCC(=O)NC2=O)C3=O)CC1 (stereo not drawn) [Compound 146, 2-(2,6-dioxopiperidin-3-yl)-5-(4-hydroxy-1-propylpiperidin-4-yl)-2,3-dihydro-1H-isoindole-1,3-dione, HCl salt] | 43 | 69
O=C1CCC(N2C(=O)c3ccc(C4(O)CCN(Cc5ccc(-c6nccs6)cc5)CC4)cc3C2=O)C(=O)N1 (stereo not drawn) [Compound 147, 2-(2,6-dioxopiperidin-3-yl)-5-(4-hydroxy-1-{[4-(1,3-thiazol-2-yl)phenyl]methyl}piperidin-4-yl)-2,3-dihydro-1H-isoindole-1,3-dione, HCl salt] | 8 | 88
